Results published in ChEMBL document CHEMBL4507291 (2021).

Columns and labels:
[1] = biological target: Receptor tyrosine-protein kinase erbB-2 (Homo sapiens) (UniProt P04626); experiment: ERBB2 (HER2) Kinase screen; conditions: Compound concentration 1.0 uM
[2] = biological target: Ephrin type-A receptor 4 (Homo sapiens) (UniProt P54764); experiment: EPHA4 Kinase screen; conditions: Compound concentration 1.0 uM
[3] = PRKCB2 (PKC beta II) Kinase screen; conditions: Compound concentration 1.0 uM
[4] = biological target: Platelet-derived growth factor receptor beta (Homo sapiens) (UniProt P09619); experiment: PDGFRB (PDGFR beta) Kinase screen; conditions: Compound concentration 1.0 uM
Sequence of Platelet-derived growth factor receptor beta (Homo sapiens) (P09619 whole entry): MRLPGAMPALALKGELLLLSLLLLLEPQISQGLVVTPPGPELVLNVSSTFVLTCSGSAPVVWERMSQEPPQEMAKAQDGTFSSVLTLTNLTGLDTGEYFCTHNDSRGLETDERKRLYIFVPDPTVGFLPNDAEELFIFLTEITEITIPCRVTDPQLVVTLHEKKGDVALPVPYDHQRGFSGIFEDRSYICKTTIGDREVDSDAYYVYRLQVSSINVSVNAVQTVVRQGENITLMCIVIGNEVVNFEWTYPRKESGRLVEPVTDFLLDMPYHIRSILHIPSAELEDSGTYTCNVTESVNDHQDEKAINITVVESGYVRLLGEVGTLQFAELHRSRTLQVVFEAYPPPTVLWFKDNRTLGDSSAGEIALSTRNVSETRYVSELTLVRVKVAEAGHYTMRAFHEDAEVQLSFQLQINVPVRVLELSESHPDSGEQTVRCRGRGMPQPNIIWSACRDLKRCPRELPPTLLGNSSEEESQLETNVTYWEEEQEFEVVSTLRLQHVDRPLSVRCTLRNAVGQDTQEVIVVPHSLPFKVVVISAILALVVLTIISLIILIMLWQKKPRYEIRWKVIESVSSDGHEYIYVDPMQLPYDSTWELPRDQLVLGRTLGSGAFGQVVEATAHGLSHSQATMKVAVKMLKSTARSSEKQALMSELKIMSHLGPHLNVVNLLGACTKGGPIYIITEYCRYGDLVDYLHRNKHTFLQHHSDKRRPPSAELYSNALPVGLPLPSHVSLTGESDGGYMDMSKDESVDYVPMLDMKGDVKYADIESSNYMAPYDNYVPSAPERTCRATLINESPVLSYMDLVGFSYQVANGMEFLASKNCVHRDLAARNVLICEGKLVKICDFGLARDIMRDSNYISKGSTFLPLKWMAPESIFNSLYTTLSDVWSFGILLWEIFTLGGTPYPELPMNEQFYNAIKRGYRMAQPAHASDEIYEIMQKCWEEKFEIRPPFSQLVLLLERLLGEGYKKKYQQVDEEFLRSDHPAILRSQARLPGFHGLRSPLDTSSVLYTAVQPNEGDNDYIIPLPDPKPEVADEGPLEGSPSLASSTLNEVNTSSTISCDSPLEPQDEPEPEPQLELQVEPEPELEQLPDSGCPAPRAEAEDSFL

[5] = biological target: T1, Beta-adrenergic receptor kinase 1 (Homo sapiens) (UniProt P25098); experiment: ADRBK1 (GRK2) Kinase screen; conditions: Compound concentration 1.0 uM
T1 sequence (whole entry): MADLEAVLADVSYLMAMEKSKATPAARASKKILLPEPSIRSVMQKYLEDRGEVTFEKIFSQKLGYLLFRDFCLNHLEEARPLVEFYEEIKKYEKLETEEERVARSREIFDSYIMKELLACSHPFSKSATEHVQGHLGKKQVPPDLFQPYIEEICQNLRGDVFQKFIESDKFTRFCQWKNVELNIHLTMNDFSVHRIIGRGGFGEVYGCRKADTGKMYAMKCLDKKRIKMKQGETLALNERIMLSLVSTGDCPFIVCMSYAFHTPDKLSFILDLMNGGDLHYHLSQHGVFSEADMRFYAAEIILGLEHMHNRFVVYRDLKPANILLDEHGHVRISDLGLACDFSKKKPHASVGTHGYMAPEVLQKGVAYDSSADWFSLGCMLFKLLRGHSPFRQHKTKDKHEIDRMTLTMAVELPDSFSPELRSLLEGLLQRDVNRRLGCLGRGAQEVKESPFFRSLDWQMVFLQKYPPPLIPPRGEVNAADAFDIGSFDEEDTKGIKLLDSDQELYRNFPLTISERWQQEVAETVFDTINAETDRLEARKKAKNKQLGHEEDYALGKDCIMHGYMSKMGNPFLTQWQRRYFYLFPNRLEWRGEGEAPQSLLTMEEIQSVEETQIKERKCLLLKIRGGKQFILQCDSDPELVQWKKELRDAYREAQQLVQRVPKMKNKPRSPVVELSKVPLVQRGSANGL

[6] = biological target: B1 bradykinin receptor (Homo sapiens) (UniProt P46663); experiment: Inhibition of Bradykinin B1 at 10 µM in the Eurofins-Panlabs radioligand binding assay (Eurofins_assay_212510); conditions: Compound concentration 10.0 uM
Sequence of B1 bradykinin receptor (Homo sapiens) (P46663 whole entry): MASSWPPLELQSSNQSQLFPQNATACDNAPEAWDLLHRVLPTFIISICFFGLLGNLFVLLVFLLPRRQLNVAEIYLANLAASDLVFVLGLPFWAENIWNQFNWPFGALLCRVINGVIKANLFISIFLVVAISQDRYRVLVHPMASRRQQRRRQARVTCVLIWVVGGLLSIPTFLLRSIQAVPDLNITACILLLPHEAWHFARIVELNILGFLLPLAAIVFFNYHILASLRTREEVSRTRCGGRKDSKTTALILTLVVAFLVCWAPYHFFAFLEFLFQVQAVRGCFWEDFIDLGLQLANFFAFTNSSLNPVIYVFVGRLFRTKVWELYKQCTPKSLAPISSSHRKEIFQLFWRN

[7] = biological target: Fibroblast growth factor receptor 3 (Homo sapiens) (UniProt P22607); experiment: FGFR3 Kinase screen; conditions: Compound concentration 1.0 uM
Sequence of Fibroblast growth factor receptor 3 (Homo sapiens) (P22607 23-806 limits assumed): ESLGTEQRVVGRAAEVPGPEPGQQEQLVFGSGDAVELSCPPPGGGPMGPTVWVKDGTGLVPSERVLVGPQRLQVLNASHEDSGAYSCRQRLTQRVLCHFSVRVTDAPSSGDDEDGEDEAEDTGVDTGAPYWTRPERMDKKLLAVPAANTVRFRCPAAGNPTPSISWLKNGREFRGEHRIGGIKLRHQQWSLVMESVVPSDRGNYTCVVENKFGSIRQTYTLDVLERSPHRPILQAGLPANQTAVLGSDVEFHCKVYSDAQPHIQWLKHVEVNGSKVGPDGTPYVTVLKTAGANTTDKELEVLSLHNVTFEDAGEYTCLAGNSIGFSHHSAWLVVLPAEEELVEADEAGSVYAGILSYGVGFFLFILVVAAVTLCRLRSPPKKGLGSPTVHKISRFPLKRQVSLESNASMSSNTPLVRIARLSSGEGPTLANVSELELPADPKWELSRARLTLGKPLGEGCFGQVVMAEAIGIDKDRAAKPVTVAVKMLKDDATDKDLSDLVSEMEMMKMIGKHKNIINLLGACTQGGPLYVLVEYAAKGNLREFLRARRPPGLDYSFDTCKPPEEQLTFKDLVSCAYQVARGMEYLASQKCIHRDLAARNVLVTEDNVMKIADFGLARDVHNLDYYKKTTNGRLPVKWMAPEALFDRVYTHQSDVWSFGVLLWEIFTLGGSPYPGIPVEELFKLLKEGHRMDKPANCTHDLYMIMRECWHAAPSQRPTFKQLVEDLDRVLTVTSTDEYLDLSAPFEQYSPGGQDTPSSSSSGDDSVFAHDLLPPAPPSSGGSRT

[8] = biological target: Proto-oncogene tyrosine-protein kinase Src (Homo sapiens) (UniProt P12931); experiment: SRC Kinase screen; conditions: Compound concentration 1.0 uM
Sequence of Proto-oncogene tyrosine-protein kinase Src (Homo sapiens) (P12931 2-536 limits assumed): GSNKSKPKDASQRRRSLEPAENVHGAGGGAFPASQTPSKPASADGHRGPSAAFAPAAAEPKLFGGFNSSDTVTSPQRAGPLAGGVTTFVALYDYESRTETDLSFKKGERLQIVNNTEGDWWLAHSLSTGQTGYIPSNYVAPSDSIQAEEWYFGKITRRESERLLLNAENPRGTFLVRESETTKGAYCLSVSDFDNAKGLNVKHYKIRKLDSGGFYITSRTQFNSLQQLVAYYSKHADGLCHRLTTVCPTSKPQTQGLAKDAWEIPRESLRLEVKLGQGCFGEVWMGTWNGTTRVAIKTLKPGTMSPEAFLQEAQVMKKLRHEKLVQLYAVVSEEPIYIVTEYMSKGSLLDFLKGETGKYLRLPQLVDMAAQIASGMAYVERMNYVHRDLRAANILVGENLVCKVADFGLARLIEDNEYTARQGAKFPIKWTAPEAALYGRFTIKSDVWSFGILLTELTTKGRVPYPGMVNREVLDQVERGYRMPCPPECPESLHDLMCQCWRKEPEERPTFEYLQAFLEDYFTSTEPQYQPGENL

[9] = biological target: Glucocorticoid receptor (Homo sapiens) (UniProt P04150); conditions: Compound concentration 10.0 uM
[10] = biological target: Serine/threonine-protein kinase PAK 4 (Homo sapiens) (UniProt O96013); experiment: PAK4 Kinase screen; conditions: Compound concentration 1.0 uM
Sequence of Serine/threonine-protein kinase PAK 4 (Homo sapiens) (O96013 whole entry, looked up): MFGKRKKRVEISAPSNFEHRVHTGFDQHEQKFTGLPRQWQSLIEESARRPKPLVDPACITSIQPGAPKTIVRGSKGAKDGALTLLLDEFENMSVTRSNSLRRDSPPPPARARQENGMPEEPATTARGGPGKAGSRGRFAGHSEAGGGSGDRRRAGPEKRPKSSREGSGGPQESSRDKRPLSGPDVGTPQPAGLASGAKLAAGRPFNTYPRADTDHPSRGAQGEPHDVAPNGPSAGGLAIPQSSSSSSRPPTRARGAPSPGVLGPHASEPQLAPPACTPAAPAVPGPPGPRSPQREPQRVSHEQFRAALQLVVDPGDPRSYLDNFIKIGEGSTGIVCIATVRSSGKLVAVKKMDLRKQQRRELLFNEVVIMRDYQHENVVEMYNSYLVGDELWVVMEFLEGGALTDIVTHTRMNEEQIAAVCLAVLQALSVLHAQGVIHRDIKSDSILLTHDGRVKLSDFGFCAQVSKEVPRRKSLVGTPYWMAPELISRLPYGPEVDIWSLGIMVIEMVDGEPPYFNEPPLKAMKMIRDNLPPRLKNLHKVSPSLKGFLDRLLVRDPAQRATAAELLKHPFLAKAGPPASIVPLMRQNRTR

[11] = biological target: T2, Activin receptor type-1B (Homo sapiens) (UniProt P36896); experiment: ACVR1B (ALK4) Kinase screen; conditions: Compound concentration 1.0 uM
T2 sequence (whole entry): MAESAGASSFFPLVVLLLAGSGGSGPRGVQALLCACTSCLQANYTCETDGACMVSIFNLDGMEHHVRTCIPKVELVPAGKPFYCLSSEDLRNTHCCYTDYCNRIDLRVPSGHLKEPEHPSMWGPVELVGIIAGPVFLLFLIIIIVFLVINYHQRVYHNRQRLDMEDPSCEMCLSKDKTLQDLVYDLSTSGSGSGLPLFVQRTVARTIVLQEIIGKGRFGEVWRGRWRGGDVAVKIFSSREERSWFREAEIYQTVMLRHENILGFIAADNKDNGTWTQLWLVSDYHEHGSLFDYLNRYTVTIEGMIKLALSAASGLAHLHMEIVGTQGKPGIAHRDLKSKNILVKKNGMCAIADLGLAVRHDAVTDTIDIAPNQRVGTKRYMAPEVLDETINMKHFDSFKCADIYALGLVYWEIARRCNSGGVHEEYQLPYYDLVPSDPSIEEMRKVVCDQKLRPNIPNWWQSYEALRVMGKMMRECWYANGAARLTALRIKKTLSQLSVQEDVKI

[12] = biological target: Melanin-concentrating hormone receptor 1 (Homo sapiens) (UniProt Q99705); experiment: Melanin-Concentrating Hormone MCH1 (SLC1) Eurofins-Panlabs radioligand binding assay; design: ligand concentration 0.05 nM; conditions: Compound concentration 10.0 uM
Sequence of Melanin-concentrating hormone receptor 1 (Homo sapiens) (Q99705 whole entry): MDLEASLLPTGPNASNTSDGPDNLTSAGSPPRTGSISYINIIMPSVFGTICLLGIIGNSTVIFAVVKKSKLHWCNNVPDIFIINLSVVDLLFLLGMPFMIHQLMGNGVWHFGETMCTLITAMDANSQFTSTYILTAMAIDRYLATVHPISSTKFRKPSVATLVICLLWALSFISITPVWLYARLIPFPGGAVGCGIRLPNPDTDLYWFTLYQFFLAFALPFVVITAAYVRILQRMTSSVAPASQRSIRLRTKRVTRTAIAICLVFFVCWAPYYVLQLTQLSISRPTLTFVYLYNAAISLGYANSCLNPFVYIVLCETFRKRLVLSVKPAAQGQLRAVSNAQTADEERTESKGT

[13] = biological target: CDK8/Cyclin C (Homo sapiens) (UniProt P49336+P24863); experiment: CDK8/cyclin C Kinase screen; assay type: protein-complex assay; conditions: Compound concentration 1.0 uM
[14] = biological target: T3, Ephrin type-B receptor 1 (Homo sapiens) (UniProt P54762); experiment: EPHB1 Kinase screen; conditions: Compound concentration 1.0 uM
T3 sequence (whole entry): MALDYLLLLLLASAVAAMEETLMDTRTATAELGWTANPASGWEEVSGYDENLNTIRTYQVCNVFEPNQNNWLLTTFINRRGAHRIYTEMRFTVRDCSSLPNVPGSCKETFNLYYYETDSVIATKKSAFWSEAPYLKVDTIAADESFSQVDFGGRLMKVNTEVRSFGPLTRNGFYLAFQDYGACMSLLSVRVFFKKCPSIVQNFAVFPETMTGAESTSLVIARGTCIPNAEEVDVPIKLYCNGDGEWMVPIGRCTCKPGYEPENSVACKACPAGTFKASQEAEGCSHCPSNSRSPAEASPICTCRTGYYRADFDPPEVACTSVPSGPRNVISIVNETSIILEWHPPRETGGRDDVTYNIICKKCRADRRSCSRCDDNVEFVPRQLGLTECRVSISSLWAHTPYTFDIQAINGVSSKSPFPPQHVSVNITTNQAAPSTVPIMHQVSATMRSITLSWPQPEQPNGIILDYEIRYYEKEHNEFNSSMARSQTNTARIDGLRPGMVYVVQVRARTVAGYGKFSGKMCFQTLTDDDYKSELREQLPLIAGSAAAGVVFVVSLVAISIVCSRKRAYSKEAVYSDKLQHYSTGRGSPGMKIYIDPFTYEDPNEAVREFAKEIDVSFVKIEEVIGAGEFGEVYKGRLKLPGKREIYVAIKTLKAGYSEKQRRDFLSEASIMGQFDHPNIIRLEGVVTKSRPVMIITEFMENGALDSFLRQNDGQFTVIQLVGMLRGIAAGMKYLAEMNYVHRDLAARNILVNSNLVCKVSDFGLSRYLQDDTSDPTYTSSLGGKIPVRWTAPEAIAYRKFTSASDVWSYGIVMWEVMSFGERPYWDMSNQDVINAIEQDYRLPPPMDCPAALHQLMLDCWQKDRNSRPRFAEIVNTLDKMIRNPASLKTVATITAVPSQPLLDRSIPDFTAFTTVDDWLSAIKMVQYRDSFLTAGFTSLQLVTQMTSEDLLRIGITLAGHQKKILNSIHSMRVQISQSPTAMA

[15] = biological target: GABA-A receptor; anion channel (Rattus norvegicus) (UniProt O09028+P15431+P18506+P18508+P19969+P20236+P23574+P23576+P28471+P28473+P30191+P62813+P63079+P63138+Q91ZM7+Q9ES14); conditions: Compound concentration 10.0 uM

Measured: inhibition

Sequence of Ephrin type-A receptor 4 (Homo sapiens) (P54764 whole entry): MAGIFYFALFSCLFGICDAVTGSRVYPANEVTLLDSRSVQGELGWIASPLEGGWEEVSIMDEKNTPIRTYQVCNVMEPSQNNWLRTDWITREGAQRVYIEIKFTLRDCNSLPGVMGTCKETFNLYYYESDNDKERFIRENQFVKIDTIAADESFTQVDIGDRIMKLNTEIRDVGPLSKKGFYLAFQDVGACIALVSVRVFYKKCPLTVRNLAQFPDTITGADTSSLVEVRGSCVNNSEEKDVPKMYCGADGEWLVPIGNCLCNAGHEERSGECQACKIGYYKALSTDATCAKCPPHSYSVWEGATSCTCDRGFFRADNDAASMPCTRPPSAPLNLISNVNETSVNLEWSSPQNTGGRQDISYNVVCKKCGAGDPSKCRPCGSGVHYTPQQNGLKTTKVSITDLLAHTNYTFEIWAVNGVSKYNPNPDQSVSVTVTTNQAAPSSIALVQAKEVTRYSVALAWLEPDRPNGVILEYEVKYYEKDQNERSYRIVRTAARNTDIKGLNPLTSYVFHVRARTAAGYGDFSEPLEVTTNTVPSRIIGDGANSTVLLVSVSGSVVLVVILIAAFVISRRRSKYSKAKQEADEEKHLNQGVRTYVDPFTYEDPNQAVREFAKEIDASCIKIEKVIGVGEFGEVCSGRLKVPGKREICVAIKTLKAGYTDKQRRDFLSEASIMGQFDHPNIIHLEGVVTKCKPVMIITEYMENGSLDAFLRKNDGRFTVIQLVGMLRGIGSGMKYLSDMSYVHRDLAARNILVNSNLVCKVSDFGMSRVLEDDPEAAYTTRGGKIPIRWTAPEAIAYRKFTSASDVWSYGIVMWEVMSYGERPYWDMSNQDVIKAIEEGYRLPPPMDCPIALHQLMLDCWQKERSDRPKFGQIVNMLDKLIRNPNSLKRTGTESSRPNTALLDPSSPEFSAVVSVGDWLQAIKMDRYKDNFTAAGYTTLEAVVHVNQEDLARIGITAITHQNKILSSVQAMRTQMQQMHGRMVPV

C[C@@H]1CN(c2cc(-c3n[nH]c4ccc(OC5(C)CC5)cc34)ncn2)C[C@H](C)O1 [MLi-2]
inactive: [1] -2.46% | [2] 4.82% | [3] 10.4% | [4] 6.43% | [5] 3.84% | [6] 8% | [7] 9.38% | [8] 4.97% | [9] 19% | [10] -7.34% | [11] -0.724% | [12] 1% | [13] 8.75% | [14] 3.46% | [15] 35%
